A word on the IC50: it is the point on the concentration scale where inhibition reaches its midpoint.

Series [1] deals with T1, PDE2A (Homo sapiens, UniProt O00408). The experiment in a line: Radioactive PDE2 assay ([3H]cAMP SPA). Type of series: biochemical.
Procedure: a) Radioactive PDE2 Assay Protocol:
PDE 2A protein is expressed upon baculovirus infection in SF9 cells. The cells have been incubated upon infection for ˜3 days and protein production was confirmed by Western Blot. The cells were collected by centrifugation and the pellet frozen in liquid nitrogen before it was resuspended in PBS containing 1% Triton X-100 and protease inhibitors.
(§1) Into a 384 well plate (OptiPlate, white), the following components are pipetted (either manually or using automated pipetting devices):
(§2) 20 μl test-compound solution (test compound diluted in assay buffer at twofold the desired concentration)
+10 μl PDE 2A preparation (enzyme diluted in assay buffer to a concentration of 0.5 ng/μl protein)
+10 μl [^3H]cAMP (diluted in assay buffer to a concentration of 80 nM cAMP)
positive control: no inhibitor, DMSO at the concentration as used in the compound dilutions
negative control: no PDE 2 (SF9 lysate instead of SF9/PDE 2A lysate)
Calculation of % Inhibition:
(§3) The activity of the positive control (minus the negative control=background) is set to 100% and activity in the presence of compound is expressed relative to these 100%.
(§4) IC50 are calculated with GraphPadPrism or other suited software setting the positive control as 100 and the negative control as 0. For calculation of IC50 usually 11 dilutions of the test compound are selected.
For another series, the target named is PDE 10A (Homo sapiens, UniProt Q9Y233). The experiment in a line: Radioactive PDE10 assay ([3H]cAMP SPA). Type of series: biochemical.
In series [2] the target is T1, PDE2A. Nature of the series: PDE 2A assay with fluorescent substrate (IMAP, fluorescence polarization). Type of series: biochemical. To be noted: read-out: PDE2 IC50. (In general: Polarisation of emitted light reports the rotation of a fluorescent probe.)
For the next series, the target named is PDE10 (Homo sapiens, UniProt Q9Y233). The experiment in a line: PDE10 assay with fluorescent substrate (IMAP, fluorescence polarization). Type of series: biochemical.
PDE10, sequence (Q9Y233 whole entry, species assumed): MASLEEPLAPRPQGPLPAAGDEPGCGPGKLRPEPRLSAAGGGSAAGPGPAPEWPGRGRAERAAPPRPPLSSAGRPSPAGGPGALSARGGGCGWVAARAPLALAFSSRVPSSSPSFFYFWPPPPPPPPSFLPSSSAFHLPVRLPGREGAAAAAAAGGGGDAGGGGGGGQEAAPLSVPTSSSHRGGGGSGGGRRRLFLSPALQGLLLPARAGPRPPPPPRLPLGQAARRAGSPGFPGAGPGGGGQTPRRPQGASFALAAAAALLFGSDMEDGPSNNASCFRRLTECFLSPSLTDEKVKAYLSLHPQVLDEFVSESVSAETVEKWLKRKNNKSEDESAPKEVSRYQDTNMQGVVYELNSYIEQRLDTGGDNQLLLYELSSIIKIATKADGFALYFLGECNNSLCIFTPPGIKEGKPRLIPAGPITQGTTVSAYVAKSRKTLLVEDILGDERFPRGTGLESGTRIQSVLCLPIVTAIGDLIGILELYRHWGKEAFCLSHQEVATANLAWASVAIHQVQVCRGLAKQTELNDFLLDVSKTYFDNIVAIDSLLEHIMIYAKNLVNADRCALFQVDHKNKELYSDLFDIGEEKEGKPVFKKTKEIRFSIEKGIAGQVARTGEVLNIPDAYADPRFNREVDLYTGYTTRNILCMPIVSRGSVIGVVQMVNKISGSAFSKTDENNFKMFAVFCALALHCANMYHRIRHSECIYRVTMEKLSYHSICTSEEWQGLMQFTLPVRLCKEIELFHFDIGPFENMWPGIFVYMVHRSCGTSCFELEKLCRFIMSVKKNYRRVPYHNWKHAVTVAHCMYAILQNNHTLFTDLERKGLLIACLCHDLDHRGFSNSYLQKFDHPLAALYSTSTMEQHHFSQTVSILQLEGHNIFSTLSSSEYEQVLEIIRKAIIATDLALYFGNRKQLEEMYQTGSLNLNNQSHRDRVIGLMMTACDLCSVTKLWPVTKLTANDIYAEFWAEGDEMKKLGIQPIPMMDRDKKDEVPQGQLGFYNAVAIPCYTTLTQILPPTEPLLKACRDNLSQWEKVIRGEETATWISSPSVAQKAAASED
Series [3] in a line: Metabolic stability in pooled liver microsomes. Type of series: in vitro ADME. Particulars: human liver microsomes, 37° C., 1 mg/mL microsomal protein, test compound 1 μM, NADPH. A general note: Liver microsomes are a subcellular fraction often used to study metabolism.
For a further series, the target named is hERG channel (Homo sapiens, UniProt Q12809). Nature of the series: hERG channel assay (whole-cell patch clamp, HEK293 cells transfected with hERG cDNA). Type of series: cell-based. To be noted: 35° C. The source says: hERG (Human Ether-à-Go-Go-Related Gene)-Channel Assay
hERG channel, sequence (Q12809 whole entry): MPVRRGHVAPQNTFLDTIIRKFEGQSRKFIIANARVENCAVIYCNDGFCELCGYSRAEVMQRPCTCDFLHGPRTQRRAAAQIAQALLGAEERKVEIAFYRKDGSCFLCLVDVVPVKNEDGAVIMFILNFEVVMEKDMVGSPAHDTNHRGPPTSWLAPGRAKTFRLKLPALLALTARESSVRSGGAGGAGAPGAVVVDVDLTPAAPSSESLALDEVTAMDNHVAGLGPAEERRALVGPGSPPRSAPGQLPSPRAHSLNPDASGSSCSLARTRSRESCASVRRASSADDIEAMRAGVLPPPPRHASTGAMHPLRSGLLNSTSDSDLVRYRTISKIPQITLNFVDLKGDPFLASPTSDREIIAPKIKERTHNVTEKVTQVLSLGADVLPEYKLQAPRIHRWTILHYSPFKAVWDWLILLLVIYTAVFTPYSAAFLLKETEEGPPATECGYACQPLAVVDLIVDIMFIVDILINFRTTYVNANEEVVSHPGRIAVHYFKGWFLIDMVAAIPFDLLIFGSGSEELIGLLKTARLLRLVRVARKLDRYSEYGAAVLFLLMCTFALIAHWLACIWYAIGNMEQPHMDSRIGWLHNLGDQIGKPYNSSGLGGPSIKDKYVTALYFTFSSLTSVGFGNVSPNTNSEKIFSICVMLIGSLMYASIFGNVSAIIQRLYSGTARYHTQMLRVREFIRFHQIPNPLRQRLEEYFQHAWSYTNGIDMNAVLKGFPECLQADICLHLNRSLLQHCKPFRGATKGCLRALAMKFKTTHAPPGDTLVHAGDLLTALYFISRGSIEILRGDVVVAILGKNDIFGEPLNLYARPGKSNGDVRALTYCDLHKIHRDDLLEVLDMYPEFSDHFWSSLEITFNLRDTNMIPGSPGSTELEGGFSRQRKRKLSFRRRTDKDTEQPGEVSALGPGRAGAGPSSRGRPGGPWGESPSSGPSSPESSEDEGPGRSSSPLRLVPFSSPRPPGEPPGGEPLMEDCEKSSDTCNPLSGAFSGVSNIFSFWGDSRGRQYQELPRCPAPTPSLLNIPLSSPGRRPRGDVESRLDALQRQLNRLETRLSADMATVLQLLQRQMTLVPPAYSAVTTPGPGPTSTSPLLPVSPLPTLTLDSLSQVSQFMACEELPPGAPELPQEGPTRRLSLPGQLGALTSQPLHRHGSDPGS
hERG channel inhibition of compounds of the present invention has been investigated as follows:
HEK (human embryonic kidney) 293 cells were stably transfected with hERG cDNA. Cells were superfused with a bath solution containing (mM): NaCl (137), KCl (4.0), MgCl2 (1.0), CaCl2 (1.8), Glucose (10), HEPES (10), pH 7.4 with NaOH. Patch pipettes were made from borosilicate glass tubing using a horizontal puller and filled with pipette solution containing (mM): K-aspartate (130), MgCl2 (5.0), EGTA (5.0), K2ATP (4.0), HEPES (10.0), pH 7.2 with KOH. Resistance of the microelectrodes was in the range between 2 and 5 MΩ.
Stimulation and Recording:
Membrane currents were recorded using an EPC-10 patch clamp amplifier and PatchMaster software. hERG-mediated membrane currents were recorded at 35° C., using the whole-cell configuration of the patch-clamp technique. Transfected HEK293 cells were clamped at a holding potential of −60 mV and hERG-mediated inactivating tail currents were elicited using a pulse pattern with fixed amplitudes (activation/inactivation: 40 mV for 2000 ms; recovery: […]; ramp to 40 mV in 2 ms; inactivating tail current: 40 mV for 50 ms) repeated at 15 s intervals. During each inter-pulse interval 4 pulses scaled down by a factor of 0.2 were recorded for a P/n leak subtraction procedure. […] compensation was employed up to a level that safely allowed recording devoid of ringing.
Compound Preparation and Application:
The different concentrations of the test compound were applied sequentially on each of the different cells investigated. A steady state level of baseline current was measured for at least 6 sweeps prior to the application of the first test compound concentration.
The test compound was dissolved in DMSO to yield a master stock solution which was diluted further in DMSO to stock solutions needed for the lower concentrations. Final dilutions in extracellular buffer were prepared freshly from these stocks by a 1:1000 dilution step each before starting the experiments.
Data analysis and IC50 determination:
Peak current amplitudes were measured 3 ms after the ramp to +40 mV. For baseline and each concentration the peak currents of the three last sweeps before application of the next concentration were averaged. Residual currents ( 1/10) were calculated for each cell as the fraction of actual average peak current and average baseline peak current.
The logistic concentration-response curve of the following form was fitted to the residual current data using a genetic algorithm:
C: actual concentration of compound (in μM) IC50: half-inhibitory concentration (in μM) p: Hill slope
(The hERG channel carries a current that helps repolarise heart muscle cells.)

PDE 10A, sequence (Q9Y233 whole entry, species assumed): as the sequence (Q9Y233 whole entry, species assumed) above
T1 sequence (O00408 whole entry, species assumed): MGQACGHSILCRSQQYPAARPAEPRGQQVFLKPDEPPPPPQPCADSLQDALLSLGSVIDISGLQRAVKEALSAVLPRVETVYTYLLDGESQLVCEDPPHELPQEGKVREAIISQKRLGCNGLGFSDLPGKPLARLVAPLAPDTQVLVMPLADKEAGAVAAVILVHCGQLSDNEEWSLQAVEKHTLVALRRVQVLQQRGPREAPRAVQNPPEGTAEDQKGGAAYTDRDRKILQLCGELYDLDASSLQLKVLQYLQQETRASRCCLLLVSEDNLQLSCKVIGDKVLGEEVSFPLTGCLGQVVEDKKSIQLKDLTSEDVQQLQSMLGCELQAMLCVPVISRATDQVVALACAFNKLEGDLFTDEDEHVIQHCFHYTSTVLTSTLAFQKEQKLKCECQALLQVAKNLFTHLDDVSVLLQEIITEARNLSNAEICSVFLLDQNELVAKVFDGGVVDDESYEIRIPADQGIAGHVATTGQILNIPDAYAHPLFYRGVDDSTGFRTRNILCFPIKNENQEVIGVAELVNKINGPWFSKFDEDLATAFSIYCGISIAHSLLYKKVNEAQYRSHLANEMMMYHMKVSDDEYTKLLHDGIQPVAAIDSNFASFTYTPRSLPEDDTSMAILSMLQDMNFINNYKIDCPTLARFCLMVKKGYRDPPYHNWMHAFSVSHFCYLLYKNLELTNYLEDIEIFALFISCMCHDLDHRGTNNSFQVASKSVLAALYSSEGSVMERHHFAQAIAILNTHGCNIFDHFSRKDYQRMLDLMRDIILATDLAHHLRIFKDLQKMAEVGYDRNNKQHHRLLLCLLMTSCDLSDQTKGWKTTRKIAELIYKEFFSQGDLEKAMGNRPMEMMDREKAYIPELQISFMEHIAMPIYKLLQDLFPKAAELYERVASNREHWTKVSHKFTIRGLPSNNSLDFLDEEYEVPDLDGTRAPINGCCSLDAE
Procedure for PDE 10A: as §3, §4
protein concentration: 75 pg/μl
In detail the protocol is as follows:
as §1, §2
+10 μl PDE 10A preparation (enzyme diluted in assay buffer to a concentration of 0.3 ng/μl protein)
+10 μl cAMP tracer (diluted in assay buffer to a concentration of 80 nM cAMP, specific activity ˜4 mCi/l)
After addition of all 3 components the plates are shortly spun and incubated at room temperature for 60 min. The reaction is stopped by the addition of 20 μl Yttrium SPA PDE Beads containing 18 mM zinc sulphate in water
PDE 10A protein is expressed upon baculovirus infection in SF9 cells. The cells have been incubated upon infection for ˜3 days and protein production was confirmed by Western Blot. The cells were collected by centrifugation and the pellet frozen in liquid nitrogen before it was resuspended in PBS containing 1% Triton X-100 and protease inhibitors.

As to `Cc1nc2cccnc2n2c(-c3cc(OC4CCC(F)(F)CC4)ccc3Cl)nnc12` [Example 21], the IC50 on PDE2A [1] was 0.07 µM; on PDE 10A, 2.82 µM; on PDE2A [2] it was 0.022 µM; on PDE10 it was 7.05 µM; against hERG channel it was more than 10 µM. Besides, in series [3], the “Half-life - t½” value is 2.17 h.

As for `COCCCOc1ccc(Cl)c(-c2nnc3c(C)nc4ccc(C)nc4n23)c1` [Example 31], the IC50 on PDE2A [1] amounted to 0.007 µM; on PDE 10A it was 1.9 µM; on PDE2A [2] it was 0.008 µM; against PDE10, 2.9 µM.

For the molecule `Cc1nc2cccnc2n2c(-c3cc(OCCCO)ccc3F)nnc12` [Example 26], the IC50 on PDE2A [1] turned out to be 0.116 µM; at PDE 10A it was 1.38 µM.

Take `Cc1ccc2nc(C)c3nnc(-c4cccc(OCCCO)c4)n3c2n1` [Example 36]: the values for the IC50 at PDE2A [1] and at PDE 10A were 0.219 µM and 0.85 µM, respectively.

Consider `Cc1nc2cccnc2n2c(-c3cc(O)ccc3F)nnc12` [Example 4], for which the IC50 turned out to be 0.138 µM at PDE2A [1], 0.441 µM at PDE 10A, 0.12 µM at PDE2A [2] and 0.256 µM against PDE10.

As to `Cc1nc2cccnc2n2c(-c3cc(OCC4CCOC4)ccc3Cl)nnc12` (stereo not drawn) [Example 25], the concentration for half-maximal inhibition (IC50) at PDE2A [1] came to 0.055 µM; at PDE 10A, 3.26 µM; at PDE2A [2], 0.038 µM; at PDE10 it was 7.33 µM.

Take `Cc1nc2cccnc2n2c(-c3cc(OCCCO)ccc3Cl)nnc12` [Example 13]: the IC50 was 0.053 µM on PDE2A [1]; 2.19 µM at PDE 10A; 0.095 µM at PDE2A [2]; 6.36 µM against PDE10; more than 10 µM against hERG channel. Moreover, the “Half-life - t½” value in series [3] worked out at 2.17 h.

Regarding `Cc1nc2cccnc2n2c(-c3cc(OCCC(C)O)ccc3Cl)nnc12` (stereo not drawn) [Example 19], the IC50 at PDE2A [1] was 0.146 µM; at PDE 10A, 3.01 µM.

As to `Cc1ccc2nc(C)c3nnc(-c4cc(O)ccc4Cl)n3c2n1` [Example 2], the IC50 on PDE2A [1] amounted to 0.004 µM; on PDE 10A it was 0.04 µM; on PDE2A [2], 0.003 µM; at PDE10 it was 0.033 µM.

Regarding `Cc1nc2cccnc2n2c(-c3cc(OC(C)C4CCOCC4)ccc3Cl)nnc12` (stereo not drawn) [Example 38], the values for the IC50 on PDE2A [1] and on PDE 10A were 0.417 µM and 1.96 µM, respectively.

Turning to `Cc1ccc2nc(C)c3nnc(-c4cc(OC5CCC(F)(F)CC5)ccc4Cl)n3c2n1` [Example 30], the IC50 at PDE2A [1] came out at 0.027 µM; on PDE 10A it was 3.92 µM; on PDE2A [2], 0.02 µM; on PDE10, 2.57 µM. For the same molecule, the “Half-life - t½” value in series [3] amounted to 2.17 h.

In the case of `Cc1nc2cccnc2n2c(-c3cc(OCC4(C)COC4)ccc3Cl)nnc12` [Example 37], the values for the IC50 on PDE2A [1] and at PDE 10A were 0.171 µM and 3.08 µM, respectively.

On to `Cc1nc2cccnc2n2c(-c3cc(OC4CCC(O)CC4)ccc3Cl)nnc12` (stereo not drawn) [Example 39], for which the results for the IC50 at PDE2A [1] and at PDE 10A were 0.914 µM and 2.1 µM, respectively.

As for `Cc1ccc2nc(C)c3nnc(-c4cccc(O)c4)n3c2n1` [Example 3], the concentration for half-maximal inhibition (IC50) on PDE2A [1] worked out at 0.155 µM; at PDE 10A, 0.411 µM.

With `COCCOc1ccc(Cl)c(-c2nnc3c(C)nc4ccc(C)nc4n23)c1` [Example 29], the IC50 on PDE2A [1] is 0.017 µM; at PDE 10A, 2.38 µM; on PDE2A [2], 0.037 µM; on PDE10, 5.1 µM.

For the origin of these results see patent US20140045856A1, “4-Methyl-2,3,5,9,9b-pentaaza-cyclopenta[a]naphthalenes” (BOEHRINGER INGELHEIM INTERNATIONAL GMBH, priority 2012, published 2014).
